In the Kinase Knowledgebase extract (Sharma et al. 2016):

target: MAPK14 (UniProt Q16539); experiment: Inhibition of MAPK14 Kinase Activity
Sequence (Q16539 whole entry, looked up): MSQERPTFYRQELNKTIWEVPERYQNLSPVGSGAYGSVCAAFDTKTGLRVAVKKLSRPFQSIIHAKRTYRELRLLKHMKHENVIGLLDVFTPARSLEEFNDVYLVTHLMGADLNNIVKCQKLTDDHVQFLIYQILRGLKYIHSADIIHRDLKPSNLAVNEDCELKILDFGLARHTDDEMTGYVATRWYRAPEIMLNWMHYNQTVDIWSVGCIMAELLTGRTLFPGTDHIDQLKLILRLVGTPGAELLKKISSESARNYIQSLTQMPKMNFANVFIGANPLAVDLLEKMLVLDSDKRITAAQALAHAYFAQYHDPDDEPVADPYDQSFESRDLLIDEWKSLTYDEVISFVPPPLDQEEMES

SMILES | IC50 [µM]
Nc1ccc2c(-c3c(-c4ccccn4)nn4c3CCC4)ccnc2c1 | 2.57
CN(C)CCC(=O)Nc1ccc2c(-c3c(-c4ccccn4)nn4c3CCC4)ccnc2c1 | 2.46
CN(C)CC(=O)Nc1ccc2c(-c3c(-c4ccccn4)nn4c3CCC4)ccnc2c1 | 1.46
COC(=O)Nc1ccc2c(-c3c(-c4ccccn4)nn4c3CCC4)ccnc2c1 | 0.526
O=C1OCCN1c1ccc2c(-c3c(-c4ccccn4)nn4c3CCC4)ccnc2c1 | 2.06
O=C(Nc1ccc2c(-c3c(-c4ccccn4)nn4c3CCC4)ccnc2c1)Nc1ccc2c(-c3c(-c4ccccn4)nn4c3CCC4)ccnc2c1 | 4.64

Now from value to compound:

IC50 [µM] | SMILES
1.05 | COCCNC(=O)Nc1ccc2c(-c3c(-c4ccccn4)nn4c3CCC4)ccnc2c1
1.34 | CC(=O)Nc1ccc2c(-c3c(-c4ccccn4)nn4c3CCC4)ccnc2c1
1.08 | O=C(NCCO)Nc1ccc2c(-c3c(-c4ccccn4)nn4c3CCC4)ccnc2c1
0.867 | CN(C)CCNC(=O)Nc1ccc2c(-c3c(-c4ccccn4)nn4c3CCC4)ccnc2c1
0.616 | O=C(Nc1ccc2c(-c3c(-c4ccccn4)nn4c3CCC4)ccnc2c1)OCCO
